Reference: ChEMBL document CHEMBL4020733, “Approaches towards the development of chimeric DPP4/ACE inhibitors for treating metabolic syndrome” (Bioorg Med Chem Lett, 2017)
pIC50: −log10 of the molar value.

Experiments:
[1] = biological target: T1, Angiotensin-converting enzyme (Mus musculus, UniProt P09470); experiment: Inhibition of ob/ob mouse plasma ACE
T1 sequence (P09470 whole entry): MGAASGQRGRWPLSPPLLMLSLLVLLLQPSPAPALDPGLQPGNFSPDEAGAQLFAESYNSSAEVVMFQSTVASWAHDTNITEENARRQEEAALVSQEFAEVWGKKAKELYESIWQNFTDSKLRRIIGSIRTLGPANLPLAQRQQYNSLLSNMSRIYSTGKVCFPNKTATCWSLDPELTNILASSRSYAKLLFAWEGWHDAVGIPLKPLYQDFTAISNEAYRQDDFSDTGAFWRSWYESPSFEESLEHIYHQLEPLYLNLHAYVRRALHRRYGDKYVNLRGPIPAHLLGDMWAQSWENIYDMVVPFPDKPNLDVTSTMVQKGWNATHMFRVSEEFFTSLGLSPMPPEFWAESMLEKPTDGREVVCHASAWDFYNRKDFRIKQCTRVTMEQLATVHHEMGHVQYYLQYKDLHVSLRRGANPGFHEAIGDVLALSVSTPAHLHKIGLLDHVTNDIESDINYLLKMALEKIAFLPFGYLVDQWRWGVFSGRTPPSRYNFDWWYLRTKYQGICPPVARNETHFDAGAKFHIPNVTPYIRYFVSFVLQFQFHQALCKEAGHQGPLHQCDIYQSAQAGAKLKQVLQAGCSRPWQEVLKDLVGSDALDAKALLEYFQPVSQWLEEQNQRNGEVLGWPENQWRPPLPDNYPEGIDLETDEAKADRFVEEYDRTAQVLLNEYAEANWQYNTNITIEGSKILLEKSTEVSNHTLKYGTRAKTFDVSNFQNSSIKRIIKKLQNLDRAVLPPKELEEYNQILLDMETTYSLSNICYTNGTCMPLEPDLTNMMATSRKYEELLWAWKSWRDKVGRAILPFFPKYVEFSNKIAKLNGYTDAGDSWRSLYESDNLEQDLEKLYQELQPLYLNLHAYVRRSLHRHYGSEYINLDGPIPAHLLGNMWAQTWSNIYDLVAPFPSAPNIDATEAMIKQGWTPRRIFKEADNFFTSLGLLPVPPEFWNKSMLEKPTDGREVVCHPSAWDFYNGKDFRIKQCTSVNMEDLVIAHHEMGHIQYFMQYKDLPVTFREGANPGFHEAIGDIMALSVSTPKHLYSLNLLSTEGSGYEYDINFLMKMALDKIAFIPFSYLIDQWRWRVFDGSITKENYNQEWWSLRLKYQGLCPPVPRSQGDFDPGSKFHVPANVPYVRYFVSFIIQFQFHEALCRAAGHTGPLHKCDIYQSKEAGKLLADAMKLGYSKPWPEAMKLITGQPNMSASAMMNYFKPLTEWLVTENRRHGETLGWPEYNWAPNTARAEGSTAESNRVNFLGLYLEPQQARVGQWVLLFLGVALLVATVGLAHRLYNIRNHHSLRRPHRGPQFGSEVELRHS

[2] = biological target: T2, Prolyl endopeptidase (Homo sapiens, UniProt P48147); experiment: Inhibition of PPCE (unknown origin)
T2 sequence (P48147 whole entry): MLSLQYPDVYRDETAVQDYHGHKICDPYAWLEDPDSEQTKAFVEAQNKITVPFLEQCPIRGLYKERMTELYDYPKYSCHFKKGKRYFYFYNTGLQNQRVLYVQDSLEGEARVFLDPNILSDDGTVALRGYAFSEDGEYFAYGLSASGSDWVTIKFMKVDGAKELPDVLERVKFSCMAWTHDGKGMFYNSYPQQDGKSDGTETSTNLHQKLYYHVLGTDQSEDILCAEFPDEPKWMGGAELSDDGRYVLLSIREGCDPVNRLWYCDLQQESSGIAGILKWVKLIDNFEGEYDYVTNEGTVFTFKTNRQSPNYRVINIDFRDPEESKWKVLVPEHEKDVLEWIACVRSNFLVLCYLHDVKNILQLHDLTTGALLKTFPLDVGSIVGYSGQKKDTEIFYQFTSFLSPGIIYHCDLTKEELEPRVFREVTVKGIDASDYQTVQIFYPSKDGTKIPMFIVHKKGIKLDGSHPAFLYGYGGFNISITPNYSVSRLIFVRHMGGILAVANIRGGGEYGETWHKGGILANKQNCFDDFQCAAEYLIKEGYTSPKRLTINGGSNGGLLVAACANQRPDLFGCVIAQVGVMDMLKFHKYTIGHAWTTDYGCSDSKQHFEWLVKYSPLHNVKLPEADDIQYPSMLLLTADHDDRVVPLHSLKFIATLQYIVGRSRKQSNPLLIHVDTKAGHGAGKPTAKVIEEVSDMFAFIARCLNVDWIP

Row | SMILES | pIC50 [1] | pIC50 [2]
1 | CC[C@H](N[C@@H](CCc1ccccc1)C(=O)O)C(=O)N1C[C@@H](NC(=O)C[C@H](N)Cc2cc(F)c(F)cc2F)C[C@H]1C(=O)O | 7.00 | < 4.00
2 | CCC[C@H](N[C@@H](CCc1ccccc1)C(=O)O)C(=O)N1C[C@@H](NC(=O)C[C@H](N)Cc2cc(F)c(F)cc2F)C[C@H]1C(=O)O | 5.69 | < 4.00
3 | CCCC[C@H](N[C@@H](CCc1ccccc1)C(=O)O)C(=O)N1C[C@@H](NC(=O)C[C@H](N)Cc2cc(F)c(F)cc2F)C[C@H]1C(=O)O | 5.66 | < 4.00
4 | C[C@H](N[C@@H](CCc1ccccc1)C(=O)O)C(=O)N1C[C@@H](NC(=O)C[C@H](N)Cc2cc(F)c(F)cc2F)C[C@H]1C(=O)O | 7.24 | 
